In patent publication US11312722B2, “Hsp90 inhibitors and uses thereof” (TRUSTEES OF BOSTON UNIVERSITY, priority 2019, dated 2022):
≈ marks a conversion by molar mass, not a printed value. Like-named read-outs stand apart in the source and are kept apart here.

How the values were obtained:
[1] = molecular target: Hsp90 (C. albicans whole cell lysate) (Candida albicans (strain SC5314 / ATCC MYA-2876) (Yeast), UniProt P46598); test: biochemical; format: binding; details: for C. alb Active (biochemical): Yes/No call
Outline: (§1)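 In this fluorescence polarization competition assay, compound titrations in buffer with 0.1 mg/mL bovine gamma globulin were mixed with fungal whole-cell lysate spiked with 0.1 nM Cy3-geldanamycin probe. Plates were incubated 4.5 h at room temperature. EC50 came from 4-parameter fits of probe displacement, normalized to GdA in the same lysate.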

C. neoformans Hsp90 NBD [2] = molecular target: T1, C. neoformans Hsp90 NBD (Cryptococcus neoformans, UniProt J9VVA4); test: biochemical; format: binding; details: SPR, 25° C., read-out: Biacore KD
Experimental: SPR assays. For SPR experiments, Hsp90 NBD expression constructs were modified to encode a C-terminal AviTag™ for site-specific on-column biotinylation with a BirA biotin-ligase kit (Avidity LLC; BirA-500). SPR experiments were performed on a Biacore T200 instrument at 25° C. Biotinylated Hsp90 NBD was diluted to 40 μg/mL and immobilized on a streptavidin chip (Sensor Chip SA, GE Healthcare) at a density of 2000-2500 response units (RU) on the biosensor surface. […] Resulting sensorgrams were analyzed with a fit to a 1:1 binding model, using BIA evaluation software.

[3] = mouse liver microsomes; for % remaining at 15 min (NADPH-free): NADPH-free control; for % remaining at 15 min / % remaining at 60 min: with NADPH
[4] = test system: C. neoformans (Strain H99); test: Antifungal sensitivity testing (MIC), C. neoformans H99; format: cell-based
in vitro = details: both, CD-1, mouse; for CLint scaled at 1 μM: liver microsomes; for half-life: microsomes
C. neoformans Hsp90 NBD [5] = molecular target: T1, C. neoformans Hsp90 NBD; test: FP assay with purified C. neoformans Hsp90 NBD (Ki); format: binding; details: C. neo FS calculated using Ki
Experimental: Thermal shift assays were performed under saturating ligand conditions, i.e. equimolar concentrations (10 μM) of protein and ligand. As a result, they can provide only qualitative evidence of target binding, but not a quantitative measurement of ligand affinity. […] Titrations of the Cy3-GdA probe and purified proteins were evaluated to define assay conditions and to determine the dissociation constant Kd of the probe for each NBD. Serial dilutions of test Hsp90 inhibitors were then assayed in triplicate wells under these conditions. Non-linear 4-parameter curve fitting of raw displacement data was performed in GraphPad Prism 5.0 to determine IC50 values. Finally, inhibitory constants (Ki) were calculated as described previously.
NBD expression and purification. Recombinant Hsp90 NBDs were expressed and purified as previously described. Stock protein solutions in 50% glycerol were stored at −20° C. until dilution into relevant buffers and use for FP and thermal shift assays.

[6] = test system: Hsp90 (C. albicans whole cell lysate); test: biochemical; format: binding
Outline: as §1

[7] = molecular target: Hsp90 (C. neoformans whole cell lysate) (Cryptococcus neoformans, UniProt J9VVA4); format: binding; details: read-out: C. neo EC50
Experimental: All analogs were assessed for Hsp90 binding affinity using a fluorescence polarization (FP)-based equilibrium competition assay in fungal and human whole cell lysates. […] Using lysates, the relative potency and selectivity for fungal Hsp90 was measured versus the entire ensemble of human Hsp90 isoforms in microplate format using small amounts of test materials. […] Thermal shift assays were performed under saturating ligand conditions, i.e. equimolar concentrations (10 μM) of protein and ligand. As a result, they provided qualitative evidence of target binding, but not a quantitative measurement of ligand affinity. For quantitation, a ligand dissociation constant (Ki) for key compounds was also determined using purified NBDs in FP assays and KD measurements were made by surface plasmon resonance (SPR) using a Biacore instrument. Finally, all analogs were assessed for whole cell antifungal activity against the pathogens C. albicans and C. neoformans.
FP assays. Whole cell lysates were prepared for FP assays as described previously. Total protein concentration of human and yeast lysates was determined by Bradford assay. […] Serial dilutions of test Hsp90 inhibitors were then assayed under these same conditions to monitor loss of fluorescence polarization as an indicator of probe displacement from Hsp90. […] Titrations of test compound in 25 μL of binding buffer (supplemented with 0.1 mg/mL bovine gamma globulin), were mixed with an equal volume of freshly prepared whole-cell lysate spiked with Cy3-GdA (0.1 nM). Plates were incubated at room temperature for 4.5 h to achieve equilibrium binding for the geldanamycin-based probe. […] Non-linear 4-parameter curve fitting of raw displacement data was performed in GraphPad Prism 5.0 to determine EC50 values as a measure of relative Hsp90-binding affinity. Results were normalized to the value determined for GdA in lysate of each cell type.
Statistical methods. […] In calculating the error of selectivity determinations, the fractional error of measurements in each species was summed to yield a composite error for the derived ratio.

C. neoformans Hsp90 NBD [8] = molecular target: T1, C. neoformans Hsp90 NBD; test: Protein thermal shift assay, C. neoformans Hsp90 NBD; format: binding; details: equimolar protein and ligand (10 μM)
Experimental: […]. Using recombinant proteins, assay-independent nanomolar inhibitory constants (Ki) were defined for these compounds. Binding of the compounds to their relevant NBD by thermal shift denaturation assays was also confirmed. Thermal shift assays were performed under saturating ligand conditions, i.e. equimolar concentrations (10 μM) of protein and ligand. As a result, they can provide only qualitative evidence of target binding, but not a quantitative measurement of ligand affinity. […] […]. C. neoformans or C. albicans Hsp90 NBD was combined with equimolar concentrations of the indicated bioactive inhibitors (10 μM) or DMSO control, in technical triplicates. The protein was heated from 25 to 98.6° C. at 0.2° C./5 s in the presence of Sypro Orange dye. All compounds induce an increase in melting temperature relative to the DMSO control, reported as ΔTm.
Protein thermal shift assays. Thermal melting curves were determined using a Protein Thermal Shift Kit (ThermoFisher #4462263), employing a CFX384 Real-Time PCR System (Bio-Rad, C1000 Touch Thermal Cycler). Reactions were performed in a final volume of 10 μL, and contained purified C. albicans or C. neoformans Hsp90 NBD diluted to 250 μg/mL in Buffer HBS-P (GE Healthcare Life Sciences, 0.01 M HEPES pH 7.4, 0.15 M NaCl, 0.005% v/v Surfactant P20) with 10 μM synthetic analog or DMSO control, and 1× Sypro Orange dye solution. Samples were prepared in triplicate in 384-well white plates (Bio-Rad; HSP3805). The instrument was set to melt curve, step 1 (25° C., 2 min) and step 2 (ramp to 98.6° C., increasing 0.2° C. per 5 s cycle). The inflection point of each curve is defined as the protein melting temperature (Tm). Temperature shift, ΔTm, was recorded as the difference between the Tm of the fungal Hsp90 NBD with compound minus Tm of the protein without compound.

[9] = Cryptococcus neoformans, read-out: C. neo MIC80
[10] = Cryptococcus neoformans, read-out: C. neo MIC90
[11] = Cryptococcus neoformans; read-out: C. neo MIC80
[12] = Cryptococcus neoformans; read-out: C. neo MIC90

T1 sequence (J9VVA4 1-699): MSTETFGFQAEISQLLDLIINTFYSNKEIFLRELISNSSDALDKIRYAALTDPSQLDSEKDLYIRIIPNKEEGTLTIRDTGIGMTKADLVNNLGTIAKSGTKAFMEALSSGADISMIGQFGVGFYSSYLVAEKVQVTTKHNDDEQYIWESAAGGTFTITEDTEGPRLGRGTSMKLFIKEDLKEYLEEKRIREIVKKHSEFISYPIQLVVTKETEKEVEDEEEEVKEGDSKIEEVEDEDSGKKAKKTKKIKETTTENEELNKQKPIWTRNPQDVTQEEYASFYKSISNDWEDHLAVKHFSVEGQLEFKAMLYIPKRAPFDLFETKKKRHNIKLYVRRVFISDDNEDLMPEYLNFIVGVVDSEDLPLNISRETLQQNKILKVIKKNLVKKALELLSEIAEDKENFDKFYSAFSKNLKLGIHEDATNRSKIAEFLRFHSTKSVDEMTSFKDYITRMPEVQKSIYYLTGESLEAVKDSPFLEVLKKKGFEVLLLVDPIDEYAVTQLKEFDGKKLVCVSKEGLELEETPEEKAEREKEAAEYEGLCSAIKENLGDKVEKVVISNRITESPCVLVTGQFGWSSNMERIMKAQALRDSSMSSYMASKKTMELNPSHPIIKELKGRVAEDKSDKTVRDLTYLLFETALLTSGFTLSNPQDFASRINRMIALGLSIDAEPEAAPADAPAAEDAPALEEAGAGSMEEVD
Hsp90 (C. neoformans whole cell lysate), sequence (J9VVA4 1-699): as above

SMILES	C. alb Active (biochemical) [1]	Kd (C. neoformans Hsp90 NBD [2])	% remaining at 15 min (NADPH-free) [3]	% remaining at 15 min [3]	% remaining at 60 min [3]	MIC80 [4, 9]	MIC90 [4, 10]	CLint scaled at 1 μM (in vitro)	C. neoformans NBD ΔTm (C. neoformans Hsp90 NBD [8])	other results
COc1cccc(-c2cc(Nc3cc(O)cc(O)c3C(=O)N3Cc4ccccc4C3)n(C)n2)c1 [Compound 112, 4-(2,3-Dihydro-1H-isoindole-2-carbonyl)-5-((3-(3-methoxyphenyl)-1-methyl-1H-pyrazol-5-yl)amino)benzene-1,3-diol]	Yes	74 nM	99.3%	3.7%	0%	> 25 µM	> 25 µM	1740 mL/min/kg		half-life (in vitro): 3.2 min
COc1cccc(-c2cc(Nc3cc(O)cc(O)c3C(=O)N3Cc4cccnc4C3)n(C)n2)c1 [Compound 113, 5-((3-(3-Methoxyphenyl)-1-methyl-1H-pyrazol-5-yl)amino)-4-(5H,6H,7H-pyrrolo[3,4-b]pyridine-6-carbonyl)benzene-1,3-diol]	Yes	67 nM	109.2%	4.9%	0%	> 25 µM	> 25 µM	1590 mL/min/kg		half-life (in vitro): 3.4 min
Cn1nc(-c2ccc(OC(F)(F)F)cc2)cc1Nc1cc(O)cc(O)c1C(=O)N1Cc2cccnc2C1 [Compound 131, 5-((1-Methyl-3-(4-(trifluoromethoxy)phenyl)-1H-pyrazol-5-yl)amino)-4-(5H,6H,7H-pyrrolo[3,4-b]pyridine-6-carbonyl)benzene-1,3-diol]		380 nM	104.1%	35.5%	3.9%	> 25 µM	> 25 µM	387 mL/min/kg		C. neo Active (cells) ([4]; Yes/No call): No
COc1cccc(-c2cc(Nc3cc(O)cc(O)c3C(=O)N3Cc4cn[nH]c4C3)n(C)n2)c1 [Compound 114, 5-((3-(3-Methoxyphenyl)-1-methyl-1H-pyrazol-5-yl)amino)-4-(1H,4H,5H,6H-pyrrolo[3,4-c]pyrazole-5-carbonyl)benzene-1,3-diol]	Yes	22 nM	108.2%	40.1%	7.0%	> 25 µM	> 25 µM	318 mL/min/kg		
COc1ccccc1-c1cc(Nc2cc(O)cc(O)c2C(=O)N2CC[C@H](OC)C2)n(C)n1 [ACSM01351]	Yes									C. neo Selectivity (FS) (C. neoformans Hsp90 NBD [5]): 98; C. alb Selectivity (FS) [6]: 4.6; C. alb Selective ([6]; Yes/No call): No; EC50 ([1]; read-out: C. alb EC50): 628 nM; EC50 [7]: 244 nM; C. neo MIC80 [4]: >25 µM; C. neo MIC90 [4]: >25 µM
Cc1ccccc1-c1cc(Nc2cc(O)cc(O)c2C(=O)N2Cc3ccccc3C2)n(C)n1 [Compound 106, 4-(2,3-Dihydro-1H-isoindole-2-carbonyl)-5-((1-methyl-3-(2-methylphenyl)-1H-pyrazol-5-yl)amino)benzene-1,3-diol]	Yes								12 °C	MIC ([4]; Cryptococcus neoformans; C. neoformans H99, RPMI medium, 37° C., 48 h, resazurin): < 10 µM; MIC80 [4, 11]: < 25 µM; MIC90 [4, 12]: 25 µM (≈ 11 µg/mL)
Cn1nc(-c2ccc(OC(F)(F)F)cc2)cc1Nc1cc(O)cc(O)c1C(=O)N1Cc2cn[nH]c2C1 [Compound 132, 5-((1-Methyl-3-(4-(trifluoromethoxy)phenyl)-1H-pyrazol-5-yl)amino)-4-(1H,4H,5H,6H-pyrrolo[3,4-c]pyrazole-5-carbonyl)benzene-1,3-diol]		214 nM	71.7%	63.0%	20.6%	> 25 µM	> 25 µM	176 mL/min/kg		C. neo Active (cells) ([4]; Yes/No call): No
Cn1nc(-c2ccccc2)cc1Nc1cc(O)cc(O)c1C(=O)N1Cc2ccccc2C1 [Compound 91, 4-(2,3-Dihydro-1H-isoindole-2-carbonyl)-5-((1-methyl-3-phenyl-1H-pyrazol-5-yl)amino]benzene-1,3-diol]	Yes								11 °C	MIC80 [4, 11]: > 25 µM; MIC90 [4, 12]: > 25 µM
COc1ccc(Cn2nc(-c3ccccc3)cc2Nc2cc(O)cc(O)c2C(=O)N2Cc3cccc(F)c3C2)cc1 [Compound 27, 4-(4-Fluoro-2,3-dihydro-1H-isoindole-2-carbonyl)-5-((1-((4-methoxyphenyl)methyl)-3-phenyl-1H-pyrazol-5-yl)amino)benzene-1,3-diol]									12 °C	
